Results: patent US7250157B2, “Dermatological compositions and methods” (Applied Genetics Incorporated Dermatics, priority 1996, dated 2007)
Structures can show the parent of a compound that is named as a salt.

Tested on: tyrosinase activity in S91 mouse melanoma cells
Assay: Induction of tyrosinase activity in S91 cells
Settings: for relative melanogenic potency in S91 cells (in words): Table 19 data

Compound: mono- & di-acetate 2,5 & 6,7-norbornanetriol
- Fold Induction of Tyrosinase Relative to Controls (1 mM (Table 15)): 1.5X
- Fold Induction of Tyrosinase Relative to Controls (2 mM (Table 15)): 3.0X

Compound: methyl-5-norbornene-2,3-dimethanol
- Fold Induction of Tyrosinase Relative to Controls (0.5 mM (Table 16)): 6.0X
- Fold Induction of Tyrosinase Relative to Controls (1 mM (Table 16)): 8.1X
- Fold Induction of Tyrosinase Relative to Controls (2.5 mM (Table 16)): 0.8X

Compound: CC1CCC2CC1C2(C)C [(1S)-(−)-α-pinane]
- Fold Induction of Tyrosinase Relative to Controls (0.5 mM (Table 19)): 1.4X
- Fold Induction of Tyrosinase Relative to Controls (1 mM (Table 19)): 1.1X
- Fold Induction of Tyrosinase Relative to Controls (2.5 mM (Table 19)): 1.4X
- Fold Induction of Tyrosinase Relative to Controls (5 mM (Table 19)): 1.2X

Compound: CC1CCC(C(C)(C)O)C(O)C1 (stereo not drawn) [cis-p-menthane-3,8-diol]
- Fold Induction of Tyrosinase Relative to Controls (0.5 mM (Table 19)): 1.6X
- Fold Induction of Tyrosinase Relative to Controls (1 mM (Table 19)): 3.0X
- Fold Induction of Tyrosinase Relative to Controls (2.5 mM (Table 19)): 17.1X
- Fold Induction of Tyrosinase Relative to Controls (5 mM (Table 19)): 11.6X

Compound: OC[C@@H]1CCCC[C@@H]1CO [1,2-cis-cyclohexanedimethanol]
- Fold Induction of Tyrosinase Relative to Controls (1 mM (Table 16)): 0.9X
- Fold Induction of Tyrosinase Relative to Controls (2.5 mM (Table 16)): 6.1X
- detachment of cells from culture dishes (no tyrosinase analysis) (5 mM (Table 16)): NA^

Compound: CC(C)[C@H]1CC[C@H](C)C[C@@H]1O [(1S,2R,5S)-(+)-menthol, (1S,2R,5S)-2-isopropyl-5-methylcyclohexanol]
- Fold Induction of Tyrosinase Relative to Controls (0.5 mM (Table 19)): 0.7X
- Fold Induction of Tyrosinase Relative to Controls (1 mM (Table 19)): 1.3X

Compound: OC1C2CCC(C2)C1O (stereo not drawn) [2,3-c/e-NBaneD, 2,3-cis/exo-Norbornanediol]
- induction of tyrosinase in S91 cells compared with 5-NBene-2,2-DM (FIG. 2): Lesser induction

Compound: OCC(CO)(CO)CO [pentaerylthritol]
- Fold Induction of Tyrosinase Relative to Controls (1 mM (Table 16)): 1.2X
- Fold Induction of Tyrosinase Relative to Controls (2.5 mM (Table 16)): 1.9X
- Fold Induction of Tyrosinase Relative to Controls (5 mM (Table 16)): 1.5X

Compound: CC1(C)C2CCC1(C)C(O)C2 (stereo not shown) [borneol]
- Fold Induction of Tyrosinase Relative to Controls (0.5 mM (Table 19)): 3.7X
- Fold Induction of Tyrosinase Relative to Controls (1 mM (Table 19)): 2.1X
- Fold Induction of Tyrosinase Relative to Controls (2.5 mM (Table 19)): 3.7X
- relative melanogenic potency in S91 cells (in words): much less activity

Compound: OCC1(O)CC2CCC1C2 (stereo not shown) [2-hydroxy-2-norbornanemethanol]
- Fold Induction of Tyrosinase Relative to Controls (1 mM (Table 16)): 9.2X
- Fold Induction of Tyrosinase Relative to Controls (2.5 mM (Table 16)): 15.5X
- Fold Induction of Tyrosinase Relative to Controls (5 mM (Table 16)): 45.0X

Compound: OCC1(CO)CC=CCC1 [3-cyclohexane-1,1-dimethanol]
- Fold Induction of Tyrosinase Relative to Controls (1 mM (Table 16)): 1.4X
- Fold Induction of Tyrosinase Relative to Controls (2.5 mM (Table 16)): 2.3X
- Fold Induction of Tyrosinase Relative to Controls (5 mM (Table 16)): 7.0X

Compound: CC(C)[C@@H]1CC[C@@H](C)C[C@H]1O [(1R,2S,5R)-(−)-menthol, (1R,2S,5R)-2-isopropyl-5-methylcyclohexanol]
- Fold Induction of Tyrosinase Relative to Controls (0.5 mM (Table 19)): 2.0X
- Fold Induction of Tyrosinase Relative to Controls (1 mM (Table 19)): 1.3X

Compound: OC1CC2CCC1C2O (stereo not shown) [2,7-norbornanediol]
- Fold Induction of Tyrosinase Relative to Controls (1 mM (Table 16)): 0.8X
- Fold Induction of Tyrosinase Relative to Controls (2.5 mM (Table 16)): 1.6X
- Fold Induction of Tyrosinase Relative to Controls (5 mM (Table 16)): 3.5X

Compound: COC(=O)[C@@]1(OC)C[C@H]2O[C@]1(C)n1c3ccccc3c3c4c(c5c6ccccc6n2c5c31)C(=O)N(C)C4 [KT5823, reference compound]
- effect on induction of melanogenesis by 5-NBene-2,2-DM in S91 cells (in words): reduced induction of melanogenesis by 5-NBene-2,2-DM

Compound: Cl.Cl.O=S(=O)(NCCNCC=Cc1ccc(Br)cc1)c1cccc2cnccc12 [H-89, reference compound]
- effect on induction of tyrosinase by 5-NBene-2,2-DM in S91 cells (in words): augmentation of basal and 5-NBene-2,2-DM-induced tyrosinase levels
- Tyrosinase Relative to Control (1 uM H-89): 1.3X
- Tyrosinase dpm/hr/ug Protein (1 uM H-89): 507 dpm/hr/ug Protein
- Tyrosinase Relative to Control (10 uM H-89): 3.1X
- Tyrosinase dpm/hr/ug Protein (10 uM H-89): 1236 dpm/hr/ug Protein

Compound: OCC1CCC(CO)CC1 (stereo not shown) [1,4-cyclohexanedimethanol]
- Fold Induction of Tyrosinase Relative to Controls (1 mM (Table 16)): 1.2X
- Fold Induction of Tyrosinase Relative to Controls (2.5 mM (Table 16)): 1.7X
- Fold Induction of Tyrosinase Relative to Controls (5 mM (Table 16)): 3.2X

Compound: CC1=C[C@H](O)[C@H]2C[C@@H]1C2(C)C (relative stereo) [(S)-cis-verbenol]
- Fold Induction of Tyrosinase Relative to Controls (0.5 mM (Table 19)): 1.0X
- Fold Induction of Tyrosinase Relative to Controls (1 mM (Table 19)): 3.0X
- Fold Induction of Tyrosinase Relative to Controls (2.5 mM (Table 19)): 15.5X

Compound: Bisindolylmaleimide [GF109203X, reference compound]
- effect on induction of tyrosinase by 5-NBene-2,2-DM in S91 cells (in words): augmentation of basal and 5-NBene-2,2-DM-induced tyrosinase levels
- Tyrosinase Relative to Control (0.1 uM GF109203X): 2.6
- Tyrosinase dpm/hr/ug Protein (0.1 uM GF109203X): 1025 dpm/hr/ug Protein
- Tyrosinase Relative to Control (1 uM GF109203X): 6.1X
- Tyrosinase dpm/hr/ug Protein (1 uM GF109203X): 2407 dpm/hr/ug Protein

Compound: C1CC2CCC1C2 [NBane, Norbornane]
- induction of tyrosinase in S91 cells compared with 5-NBene-2,2-DM (FIG. 2): Lesser induction
- induction of tyrosinase (1 or 5 mM (FIG. 2)): 2 fold
- induction of tyrosinase relative to untreated or ethanol (ETOH) treated control S91 cells (FIG. 2): 2 fold

Compound: O=C(O)[C@@H]1[C@H](C(=O)O)[C@@H]2C=C[C@H]1C2 [5-norbornene-2,3-cis/endodicarboxylic acid]
- Fold Induction of Tyrosinase Relative to Controls (1 mM (Table 15)): 2.2X
- Fold Induction of Tyrosinase Relative to Controls (5 mM (Table 15)): 1.0X

Compound: O=COC1CC2CCC1C2 (racemic) [± exo-2-norbornyl formate]
- Fold Induction of Tyrosinase Relative to Controls (1 mM (Table 15)): 2.7X
- Fold Induction of Tyrosinase Relative to Controls (5 mM (Table 15)): 2.3X

Compound: OC1CC2CCC1C2 (stereo not drawn) [α-NBane-ol, α-Norborneol]
- induction of tyrosinase in S91 cells compared with 5-NBene-2,2-DM (FIG. 2): Lesser induction

Compound: 1-(exo & endo-2-norbornyl-)-propan-1,2-diol
- Fold Induction of Tyrosinase Relative to Controls (0.5 mM (Table 16)): 2.2X
- Fold Induction of Tyrosinase Relative to Controls (1 mM (Table 16)): 4.2X
- Fold Induction of Tyrosinase Relative to Controls (2.5 mM (Table 16)): 48.5X
- Fold Induction of Tyrosinase Relative to Controls (5 mM (Table 16)): 2.0X

Compound: 2,5 & 6,7-norbornanetriol
- Fold Induction of Tyrosinase Relative to Controls (1 mM (Table 15)): 5.1X
- Fold Induction of Tyrosinase Relative to Controls (2 mM (Table 15)): 5.1X

Compound: CC1CCC2CC1C2(C)C [(1R)-(−)-α-pinane]
- Fold Induction of Tyrosinase Relative to Controls (0.5 mM (Table 19)): 1.2X
- Fold Induction of Tyrosinase Relative to Controls (1 mM (Table 19)): 0.8X
- Fold Induction of Tyrosinase Relative to Controls (2.5 mM (Table 19)): 0.9X

Compound: O=C(O)CC1CC2CCC1C2 (stereo not shown) [2-norbornaneacetic acid]
- Fold Induction of Tyrosinase Relative to Controls (1 mM (Table 15)): 4.6X
- Fold Induction of Tyrosinase Relative to Controls (5 mM (Table 15)): 12.9X

Compound: CC1(C)C2CCC1(C)C(O)C2O (stereo not drawn) [2,3-cis/exo-bornanediol]
- Fold Induction of Tyrosinase Relative to Controls (0.5 mM (Table 19)): 10.2X
- Fold Induction of Tyrosinase Relative to Controls (1 mM (Table 19)): 28.5X
- Fold Induction of Tyrosinase Relative to Controls (2.5 mM (Table 19)): 101X
- relative melanogenic potency in S91 cells (in words): more than twice as potent as 2,3-trans-bornanediol

Compound: OCC1(CO)CC2CCC1C2 (stereo not shown) [NBane-2,2-DM, norbornane-2,2-dimethanol]
- induction of tyrosinase in S91 cells compared with 5-NBene-2,2-DM (FIG. 2): equivalent potency

Compound: Catalase [reference compound]
- effect on induction of tyrosinase by 5-NBene-2,2-DM in S91 cells (in words): did not inhibit the action of 5-NBene-2,2-DM
- Tyrosinase Relative to Control (500 Units Catalase/ml): 1.9X
- Tyrosinase dpm/hr/ug Protein (500 Units Catalase/ml): 745 dpm/hr/ug Protein
- Tyrosinase Relative to Control (1000 Units Catalase/ml): 1.7X
- Tyrosinase dpm/hr/ug Protein (1000 Units Catalase/ml): 691 dpm/hr/ug Protein

Compound: CC1(C)[C@@H]2C[C@@H](O)[C@@](C)(O)[C@H]1C2 [(1S,2S,3R,5S)-(+)-pinanediol]
- Fold Induction of Tyrosinase Relative to Controls (1 mM (Table 19)): 9.9X
- Fold Induction of Tyrosinase Relative to Controls (2.5 mM (Table 19)): 68.4X
- Fold Induction of Tyrosinase Relative to Controls (5 mM (Table 19)): 39.9X

Compound: 2,3-cis & trans-bornanediol
- Fold Induction of Tyrosinase Relative to Controls (0.5 mM (Table 19)): 9.9X
- Fold Induction of Tyrosinase Relative to Controls (1 mM (Table 19)): 37.3X
- Fold Induction of Tyrosinase Relative to Controls (2.5 mM (Table 19)): 99.7X
- relative melanogenic potency in S91 cells (in words): approximately twice as much melanogenic activity as (1R, 2R, 3S, 5R)-(−)-pinanediol

Compound: CC1(C)C2CC=C(CO)[C@@H]1C2 [(1R)-(−)-myrtenol, (1R)-2-pinen-10-ol]
- Fold Induction of Tyrosinase Relative to Controls (0.5 mM (Table 19)): 13.6X
- Fold Induction of Tyrosinase Relative to Controls (1 mM (Table 19)): 17.6X
- Fold Induction of Tyrosinase Relative to Controls (2.5 mM (Table 19)): 2.2X

Compound: C=C(C)C1CC=C(C)CC1 (single isomer, unassigned; (+)) [R-(+)-limonene, (+)-p-mentha-1,8-diene]
- relative melanogenic potency in S91 cells (in words): little or no melanogenic activity

Compound: C[C@@H]1CC[C@@H](C(C)(C)O)[C@H](O)C1 (relative stereo) [trans-p-menthane-3,8-diol]
- Fold Induction of Tyrosinase Relative to Controls (0.5 mM (Table 19)): 5.2X
- Fold Induction of Tyrosinase Relative to Controls (1 mM (Table 19)): 13.2X
- Fold Induction of Tyrosinase Relative to Controls (2.5 mM (Table 19)): 21.0X
- Fold Induction of Tyrosinase Relative to Controls (5 mM (Table 19)): 7.3X

Compound: CCSC(=N)N [S-EITU, S-ethylisothiourea, reference compound]
- tyrosinase activity in S91 cells (in words) (1000 nM S-EITU): complete ablation of tyrosinase activity

Compound: CC1C(O)CC2CC1C2(C)C (single isomer, unassigned; (-)) [(−)-isopinocampheol]
- Fold Induction of Tyrosinase Relative to Controls (0.5 mM (Table 19)): 2.3X
- Fold Induction of Tyrosinase Relative to Controls (1 mM (Table 19)): 3.3X
- detachment of cells from culture dishes (no tyrosinase analysis) (2.5 mM (Table 19)): NA^2
- toxicity to S91 cells (in words) (higher concentrations tested (Table 19)): resulted in detachment of cells from culture dishes
